USRE39197E1, “Cell adhesion-inhibiting antiinflammatory and immune-suppressive compounds” (Abbott Laboratories, priority 1998, dated 2006)

What was measured:
[1] = molecular target: T1, interaction between the integrin LFA-1 and its adhesion partner ICAM-1 (Homo sapiens, UniProt P20701); experiment: ICAM-1/LFA-1 Biochemical Interaction Assay; type: binding; settings: 4 μM compound; recombinant LFA-1, biotinylated ICAM-1/Ig
T1 construct: Recombinant LFA-1 (100 μL of 0.7 μg/ml mL, ICOS Corporation) in D-PBS; purchased ICOS Corporation
Procedure: Compounds that antagonize the interaction between ICAM-1 and LFA-1 can be identified, and their activities quantitated, using both biochemical and cell-based adhesion assays. A primary biochemical assay measures the ability of the compound in question to block the interaction between the integrin LFA-1 and its adhesion partner ICAM-1, as described below:
ICAM-1/LFA-1 Biochemical Interaction Assay
In the biochemical assay, 100 μL of anti-LFA-1 antibody (ICOS Corporation) at a concentration of 5 μg/ml mL in Dulbecco's phosphate-buffered saaline (D-PBS) is used to coat wells of a 96-well microtiter plate overnight at 4° C. The wells are were then washed twice with wash buffer (D-PBS w/o Ca^++ or Mg^++, 0.05% Tween 20) and blocked by addition of 200 μL of D-PBS, 5% fish skin gelatin. Recombinant LFA-1 (100 μL of 0.7 μg/ml mL, ICOS Corporation) in D-PBS is was then added to each well. Incubation continues continued for 1 hour at room temperature and the wells are were washed twice with wash buffer. Serial dilutions of compounds being assayed as ICAM-1/LFA-1 antagonists, were prepared as 10 mM stock solutions in dimethyl sulfoxide (DMSO), are were diluted in D-PBS, 2 mM MgCl2, 1% fish skin gelatin and 50 μL of each dilution was added to duplicate wells. This is was followed by the addition of 50 μL of 0.8 μg/ml mL biotinylated recombinant ICAM-1/Ig (ICOS Corporation) to the wells and the plates are were incubated at room temperature for 1 hour. The wells are were then washed twice with wash buffer and 100 μL of Europium-labeled Streptavidin (Wallac Oy) diluted 1:100 in Delfia assay buffer (Wallac Oy), are was then added to the wells. Incubation proceeds proceeded for 1 hour at room temperature. The wells are were washed eight times with wash buffer and 100 μL of enhancement solution (Wallac Oy, cat. No. 1244-105) are was added to each well. Incubation proceeds proceeded for 5 minutes with constant mixing. Time-resolved fluorimetry measurements are were made using the a Victor 1420 Multilabel Counter (Wallac Oy) and the percent inhibition of each candidate compound is was calculated using the following equation: [formula] where “background” refers to wells that are were not coated with anti-LFA-1 antibody.

[2] = test system: adherence of JY-8 cells (expressing LFA-1) to immobilized ICAM-1; experiment: ICAM-1/JY-8 Cell Adhesion Assay; type: cell-based, human
Procedure: ICAM-1/JT-8 Cell Adhesion Assay
For measurment measurement of inhibotory inhibitory activity in the cell-based adhesion assay, 96-well microtiter plates are were coated with 70 μL of recombinat recombinant ICAM-1/Ig (ICOS Corporation) at a concentration of 5 μg/mL in D-PBS w/o without Ca^++ or Mg++ or Mg^++ overnight at 4° C. The wells are were then washed twice with D-PBS and blocked by addition of 200 μL of D-PBS, 5% fish skin gelatin by incubation for 1 hour at room temperature. […] The percent inhibition of a candidate compound at a given concentration is was calculated using the following equation: [formula] and these concentration/inhibition data are were used to generate does response curves, from which IC50 values are were derived.

[3] = JY-8 cells on immobilized ICAM-1/Ig
[4] = Homo sapiens, JY-8, JY-8 cells on immobilized ICAM-1/Ig

T1 sequence (P20701 26-1170): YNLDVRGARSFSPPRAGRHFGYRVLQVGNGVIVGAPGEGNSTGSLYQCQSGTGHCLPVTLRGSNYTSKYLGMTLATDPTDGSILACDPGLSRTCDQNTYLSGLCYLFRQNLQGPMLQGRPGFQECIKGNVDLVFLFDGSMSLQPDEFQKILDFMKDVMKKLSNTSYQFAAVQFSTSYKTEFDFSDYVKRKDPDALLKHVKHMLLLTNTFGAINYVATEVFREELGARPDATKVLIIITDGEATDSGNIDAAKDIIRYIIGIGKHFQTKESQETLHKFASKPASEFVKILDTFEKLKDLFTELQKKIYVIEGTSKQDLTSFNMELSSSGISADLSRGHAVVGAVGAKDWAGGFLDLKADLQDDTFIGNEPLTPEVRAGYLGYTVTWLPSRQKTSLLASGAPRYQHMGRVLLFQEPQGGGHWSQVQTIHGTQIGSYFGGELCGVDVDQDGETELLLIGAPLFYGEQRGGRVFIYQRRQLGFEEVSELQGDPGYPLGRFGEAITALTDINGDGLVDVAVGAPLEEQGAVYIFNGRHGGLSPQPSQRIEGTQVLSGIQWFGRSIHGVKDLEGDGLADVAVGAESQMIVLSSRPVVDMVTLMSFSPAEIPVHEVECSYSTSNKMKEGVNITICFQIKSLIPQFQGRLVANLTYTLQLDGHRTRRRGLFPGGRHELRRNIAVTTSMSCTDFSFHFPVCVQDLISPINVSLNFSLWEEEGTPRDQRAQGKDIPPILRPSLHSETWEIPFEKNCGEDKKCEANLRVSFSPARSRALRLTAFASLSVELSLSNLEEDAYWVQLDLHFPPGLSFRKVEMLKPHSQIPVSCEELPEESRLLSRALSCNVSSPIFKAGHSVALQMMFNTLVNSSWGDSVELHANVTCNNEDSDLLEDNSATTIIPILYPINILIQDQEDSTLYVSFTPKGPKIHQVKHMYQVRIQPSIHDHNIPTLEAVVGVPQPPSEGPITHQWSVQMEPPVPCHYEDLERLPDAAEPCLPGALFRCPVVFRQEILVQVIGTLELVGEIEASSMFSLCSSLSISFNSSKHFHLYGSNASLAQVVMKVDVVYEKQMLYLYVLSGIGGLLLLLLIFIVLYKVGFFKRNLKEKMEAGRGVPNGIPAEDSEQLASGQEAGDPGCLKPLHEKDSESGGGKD
T1 sequence (P05107 23-769 partner): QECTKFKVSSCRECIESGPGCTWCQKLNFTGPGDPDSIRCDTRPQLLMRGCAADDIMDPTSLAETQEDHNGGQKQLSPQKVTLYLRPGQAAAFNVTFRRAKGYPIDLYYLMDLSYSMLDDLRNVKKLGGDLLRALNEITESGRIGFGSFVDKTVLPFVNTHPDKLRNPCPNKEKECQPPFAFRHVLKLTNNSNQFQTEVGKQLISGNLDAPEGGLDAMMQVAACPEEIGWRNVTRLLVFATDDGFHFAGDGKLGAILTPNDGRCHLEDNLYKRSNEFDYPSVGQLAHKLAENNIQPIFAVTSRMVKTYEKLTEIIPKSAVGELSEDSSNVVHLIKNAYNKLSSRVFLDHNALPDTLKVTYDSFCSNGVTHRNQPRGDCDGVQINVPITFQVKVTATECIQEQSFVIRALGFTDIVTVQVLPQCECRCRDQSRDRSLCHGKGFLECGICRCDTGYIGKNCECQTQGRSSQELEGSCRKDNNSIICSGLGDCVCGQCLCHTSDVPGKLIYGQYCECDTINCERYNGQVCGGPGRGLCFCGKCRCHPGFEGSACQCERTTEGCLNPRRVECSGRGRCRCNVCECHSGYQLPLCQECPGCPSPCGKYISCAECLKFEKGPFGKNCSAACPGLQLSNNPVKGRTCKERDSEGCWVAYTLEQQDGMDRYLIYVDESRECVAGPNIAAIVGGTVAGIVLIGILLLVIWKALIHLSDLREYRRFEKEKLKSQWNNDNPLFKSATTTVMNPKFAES

Compound | % inhibition @ 4 μM [1] [%] | IC50 [2, 3] [nM] | IC50 [2, 4] [nM] | inhibition at 4 µM [1] [%]
CC(C)NC(=O)CN1CCN(Cc2ccccc2Sc2ccc(/C=C/C(=O)N3CCOCC3)cc2Cl)CC1 [Example 55, (2-(4-(iso-Propylaminocarbonylmethyl)piperazin-1-ylmethyl)phenyl)[2-chloro-4-(E-((1-morpholinyl)carbonyl)ethenyl)phenyl]sulfide] | 82 | 100 |  | 
O=C(/C=C/c1ccc(Sc2ccccc2CN2CCOCC2)c(Cl)c1)N1CCOCC1 [Example 53, (2-(1-Morpholinylmethyl)phenyl)[2-chloro-4-(E-((1-morpholinyl)carbonyl)ethenyl)phenyl]sulfide] |  | 700 |  | 
O=Cc1ccccc1Sc1ccc(/C=C/C(=O)N2CCOCC2)cc1Cl [Example 57, (2-Formylphenyl)[2-chloro-4-(E-((1-morpholinyl)carbonyl)ethenyl)phenyl]sulfide] | 90 | 220 |  | 
O=C(/C=C/c1ccc(Sc2ccc(Cl)cc2Cl)c(Cl)c1)N1CCN(c2ccccn2)CC1 [Example 10, (2,4-Dichlorophenyl)[2-chloro-4-(E-((4-(2-pyridyl)piperazin-1-yl)carbonyl)ethenyl)phenyl]sulfide] |  |  | 1500 | 
O=C(/C=C/c1ccc(Sc2ccc(Cl)cc2Cl)c(Cl)c1)NCCCN1CCCC1=O [Example 6, (2,4-Dichlorophenyl)[2-chloro-4-(E-((3-(2-oxopyrrolidin-1-yl)propylamino)carbonyl)ethenyl)phenyl]sulfide] |  |  | 660 | 85
CC(=O)N1CCCN(C(=O)/C=C/c2ccc(Sc3ccccc3Br)c(Cl)c2)CC1 [Example 22, (2-Bromophenyl)[2-chloro-4-(E-((4-acetylhomopiperazin-1-yl)carbonyl)ethenyl)phenyl]sulfide] |  |  | 200 | 90
O=C(/C=C/c1ccc(Sc2ccccc2Br)c(Cl)c1)N1CCc2ccccc2C1 [Example 25, (2-Bromophenyl)[2-chloro-4-(E-((2-tetrahydroisoquinolinyl)carbonyl)ethenyl)phenyl]sulfide] | 82 | 11000 |  | 
O=C(O)CN1CCN(C(=O)/C=C/c2ccc(Sc3ccc(Cl)cc3Cl)c([N+](=O)[O-])c2)CC1 [Example 44, (2,4-Dichlorophenyl)[2-nitro-4-(E-((4-(carboxymethyl)piperazin-1-yl)carbonyl)ethenyl)phenyl]sulfide] |  |  | 70 | 78
O=C(/C=C/c1ccc(Sc2ccccc2Br)c(Cl)c1)N1CCCCC1 [Example 19] | 93 | 450 |  | 
O=C(/C=C/c1ccc(Sc2ccc(Cl)cc2Cl)c(Br)c1)N1CCOCC1 [Example 64, (2,4-Dichlorophenyl)[2-bromo-4-(E-((1-morpholinyl)carbonyl)ethenyl)phenyl]sulfide] | 81 |  |  | 
O=C(/C=C/c1ccc(Sc2ccc(Cl)cc2Cl)c(Cl)c1)N1CCOCC1 [Example 7, (2,4-Dichlorophenyl)[2-chloro-4-(E-((1-morpholinyl)carbonyl)ethenyl)phenyl]sulfide] | 87 | 1200 |  | 
O=C(O)C1CCCN(C(=O)/C=C/c2ccc(Sc3ccc(Cl)cc3Cl)c(Cl)c2)C1 (stereo not drawn) [Example 20, (2,4-Dichlorophenyl)[2-chloro-4-(E-((3-carboxypiperidin-1-yl)carbonyl)ethenyl)phenyl]sulfide] |  |  | 3300 | 82
O=C(/C=C/c1ccccc1Sc1ccc(Cl)cc1Cl)NCCCCCCO [Example 1, (2,4-Dichlorophenyl)[2-(E-((6-hydroxyhexylamino)carbonyl)ethenyl)phenyl]sulfide] |  |  | 2100 | 75
Cc1ccccc1Sc1ccc(/C=C/C(=O)NCCN2CCOCC2)cc1C(F)(F)F [Example 28, (2-Methylphenyl)[2-trifluoromethyl-4-(E-((2-(1-morpholinyl)ethylamino)carbonyl)ethenyl)phenyl]sulfide] | 87 | 370 |  | 
CCN(CC)C(=O)CN1CCN(C(=O)/C=C/c2ccc(Sc3ccc(Cl)cc3Cl)c([N+](=O)[O-])c2)CC1 [Example 40, (2,4-Dichlorophenyl)[2-nitro-4-(E-((4-(diethylaminocarbonylmethyl)piperazin-1-yl)carbonyl)ethenyl)phenyl]sulfide] |  |  | 280 | 90
O=C(O)C1CCN(C(=O)/C=C/c2ccc(Sc3ccc(Cl)cc3Cl)c(Cl)c2)CC1 [Example 21, (2,4-Dichlorophenyl)[2-chloro-4-(E-((4-carboxypiperidin-1-yl)carbonyl)ethenyl)phenyl]sulfide] |  |  | 520 | 80
CC(=O)N1CCN(C(=O)/C=C/c2ccc(Sc3ccccc3CO)c([N+](=O)[O-])c2)CC1 [Example 48, (2-Hydroxymethylphenyl)[2-nitro-4-(E-((4-acetylpiperazin-1-yl)carbonyl)ethenyl)phenyl]sulfide] |  |  | 200 | 89
(2-Chlorophenyl)[2-chloro-4-(E-((4-acetylpiperazin-1-yl)carbonyl))2-propenyl)phenyl]sulfide [Example 52] | 86 | 420 |  | 
Cc1ccccc1Sc1ccc(/C=C/C(=O)N2CCN(c3ccccc3)CC2)cc1C(F)(F)F [Example 29, (2-Methylphenyl)[2-trifluoromethyl-4-(E-((4-phenylpiperazin-1-yl)carbonyl)ethenyl)phenyl]sulfide] |  |  | 160 | 84
O=C(/C=C/c1ccc(Sc2ccc(Cl)cc2Cl)c(Cl)c1)NCCO [Example 3, (2,4-Dichlorophenyl)[2-chloro-4-(E-((2-hydroxyethylamino)carbonyl)ethenyl)phenyl]sulfide] |  |  | 2500 | 75
Cc1ccccc1Sc1ccc(/C=C/C(=O)NC2CC2)cc1C(F)(F)F [Example 31, (2-Methylphenyl)[2-trifluoromethyl-4-(E-((cyclopropylamino)carbonyl)ethenyl)phenyl]sulfide] |  |  |  | 92
O=C(O)C(=O)N1CCN(C(=O)/C=C/c2ccc(Sc3ccc(Cl)cc3Cl)c([N+](=O)[O-])c2)CC1 [Example 43, (2,4-Dichlorophenyl)[2-nitro-4-(E-((4-(carboxycarbonyl)piperazin-1-yl)carbonyl)ethenyl)phenyl]sulfide] |  |  | 100 | 82
CN1CCN(C(=O)/C=C/c2ccc(Sc3ccc(Cl)cc3Cl)c(Cl)c2)CC1 [Example 8, (2,4-Dichlorophenyl)[2-chloro-4-(E-((4-methylpiperazin-1-yl)carbonyl)ethenyl)phenyl]sulfide] |  |  | 2900 | 74
CC(=O)N1CCN(C(=O)/C=C/c2ccc(Sc3ccc(C)cc3)c([N+](=O)[O-])c2)CC1 [Example 36, (4-Methylphenyl)[2-nitro-4-(E-((4-acetylpiperazin-1-yl)carbonyl)ethenyl)phenyl]sulfide] |  |  | 320 | 90
O=C(/C=C/c1ccc(Sc2ccc(Cl)cc2Cl)c(Cl)c1)NCCCCCCO [Example 4, (2,4-Dichlorophenyl)[2-chloro-4-(E-((6-hydroxyhexylamino)carbonyl)ethenyl)phenyl]sulfide] |  |  | 680 | 
O=C(/C=C/c1ccc(Sc2ccc(Cl)cc2Cl)c([N+](=O)[O-])c1)NCCCN1CCCC1=O [Example 33, (2,4-Dichlorophenyl)[2-nitro-4-(E-((3-(2-oxopyrrolidin-1-yl)propylamino)carbonyl)ethenyl)phenyl]sulfide] |  |  | 300 | 
O=C(/C=C/c1ccccc1Sc1ccc(Cl)cc1Cl)NCCCn1ccnc1 [Example 2, (2,4-Dichlorophenyl)[2-(E-((3-(1-imidazolyl)propylamino)carbonyl)ethenyl)phenyl]sulfide] |  |  | 13000 | 
O=CN1CCN(Cc2ccccc2Sc2ccc(/C=C/C(=O)N3CCOCC3)cc2Cl)CC1 [Example 58, (2-(4-Formylpiperazin-1-ylmethyl)phenyl)[2-chloro-4-(E-((1-morpholinyl)carbonyl)ethenyl)phenyl]sulfide] |  | 1600 |  | 
